Strand notation (5' to 3'): a small letter for the sugar, then the base; units joined by * are phosphorothioate-linked, units joined directly phosphodiester-linked; [ ] holds rarer units or linkages, { } end groups; capitals alone tell only the bases. k = constrained ethyl (cEt); [5mC] = 5-methylcytosine; d = 2'-deoxy (DNA)
Assays:
Assay type in all cases: cell-based
Yap1 mRNA [1] = assay: Dose-dependent inhibition of human Yap1 in A-431 cells (Example 6, 5,000 cells per well, RTS4814); conditions: for Yap1 mRNA, % UTC: 48 hours; for % UTC 148 nM / % UTC 444 nM / % UTC 1333 nM / % UTC 4000 nM: approximately 48 hours
Protocol: Modified oligonucleotides described in the studies above were tested at various doses in A-431 cells. Cultured A-431 cells at a density of 5,000 cells per well were treated using free uptake with modified oligonucleotides diluted to concentrations described in the tables below. After approximately 48 hours, Yap1 mRNA levels were measured as previously described using the Human Yap1 primer-probe set RTS4814. Yap1 mRNA levels were normalized to total RNA content, as measured by RIBOGREEN®. Results are presented in the tables below as percent control of the amount of Yap1 mRNA relative to untreated control cells (% UTC). IC50s were calculated using a linear regression on a log/linear plot of the data in excel.

Yap1 mRNA [2] = assay: Antisense inhibition of human Yap1 in SNU-449 cells by modified oligonucleotides, single dose (Example 5, RTS36584); conditions: Yap1 mRNA, percent of untreated control; modified oligonucleotides targeting SEQ ID NO: 1 and 2; Table 47
How it was run: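 SNU-449 cells were given 2,000 nM oligonucleotide by free uptake for about 48 h. Yap1 mRNA was then measured by RT-qPCR with primer probe set RTS36584, normalized to total RNA by RIBOGREEN and expressed as percent of untreated control.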

Yap1 mRNA [3] = assay: Antisense inhibition of human Yap1 in A-431 cells by cEt gapmers, single dose (Example 4, RTS4814); conditions: Table 16; A-431 cells, 5,000 cells per well, free uptake, 2,000 nM, approximately 48 hours; RTS4814; normalized to RIBOGREEN; Yap1 mRNA relative to untreated control cells
How it was run: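 Values are % UTC: Yap1 mRNA by quantitative RT-PCR, normalized to RIBOGREEN total RNA. Cells were exposed ~48 h to 2,000 nM oligonucleotide without transfection. Oligonucleotides were 16-nucleoside gapmers with three cEt nucleosides per wing, ten-deoxy gap, P=S linkages throughout.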

[4] = Table 55, 148 nM, free uptake, A-431 cells 5,000 cells per well, RTS4814
[5] = Table 55, 444 nM, free uptake, A-431 cells 5,000 cells per well, RTS4814
[6] = Table 55, 1333 nM, free uptake, A-431 cells 5,000 cells per well, RTS4814
[7] = Table 55, 4000 nM, free uptake, A-431 cells 5,000 cells per well, RTS4814
[8] = Table 55, A-431 cells 5,000 cells per well, free uptake, RTS4814
[9] = Table 54, A-431 cells, Yap1 mRNA, linear regression on a log/linear plot
[10] = Table 54, A-431 cells, free uptake, 148 nM, RTS4814
[11] = Table 54, A-431 cells, free uptake, 444 nM, RTS4814
[12] = Table 54, A-431 cells, free uptake, 1333 nM, RTS4814
[13] = Table 54, A-431 cells, free uptake, 4000 nM, RTS4814
[14] = Table 53, A-431 cells, Yap1 mRNA, linear regression on a log/linear plot
[15] = Table 53, A-431 cells, free uptake, 148 nM, RTS4814
[16] = Table 53, A-431 cells, free uptake, 444 nM, RTS4814
[17] = Table 53, A-431 cells, free uptake, 1333 nM, RTS4814
[18] = Table 53, A-431 cells, free uptake, 4000 nM, RTS4814

In the case of “716524 (antisense kA*k[5mC]*kT*dG*dA*dG*dG*dT*dA*dT*dA*dA*d[5mC]*kT*kG*kG) [compound 716524]”, the “Yap1 mRNA, % UTC” value (Yap1 mRNA [1]; [4]) is reported as 103 % UTC, the “Yap1 mRNA, % UTC” value (Yap1 mRNA [1]; [5]) is reported as 92 % UTC and the “Yap1 mRNA, % UTC” value (Yap1 mRNA [1]; [6]) is reported as 96 % UTC. For the same substance, the “Yap1 mRNA, % UTC” value (Yap1 mRNA [1]; [7]) was 62 % UTC and the IC50 (Yap1 mRNA [1]; [8]) was over 4 µM.

In the case of “716493 (antisense kA*k[5mC]*kA*dT*dT*dG*dA*dA*dA*dG*dA*d[5mC]*d[5mC]*k[5mC]*kT*kT) [compound 716493]”, the IC50 (Yap1 mRNA [1]; [9]) is reported as over 4 µM, the “% UTC 148 nM” value (Yap1 mRNA [1]; [10]) is reported as 95 % UTC and the “% UTC 444 nM” value (Yap1 mRNA [1]; [11]) is reported as 97 % UTC. For the same substance, the “% UTC 1333 nM” value (Yap1 mRNA [1]; [12]) was 86 % UTC and the “% UTC 4000 nM” value (Yap1 mRNA [1]; [13]) was 72 % UTC.

In the case of “716370 (k[5mC]*kA*kG*dT*dG*d[5mC]*d[5mC]*dT*dG*d[5mC]*dA*dT*d[5mC]*kA*kG*kT; antisense) [compound 716370]”, the IC50 (Yap1 mRNA [1]; [9]) is reported as over 4 µM, the “% UTC 148 nM” value (Yap1 mRNA [1]; [10]) is reported as 81 % UTC and the “% UTC 444 nM” value (Yap1 mRNA [1]; [11]) is reported as 79 % UTC. For the same substance, the “% UTC 1333 nM” value (Yap1 mRNA [1]; [12]) was 69 % UTC and the “% UTC 4000 nM” value (Yap1 mRNA [1]; [13]) was 49 % UTC.

With “715423 (k[5mC]*k[5mC]*kA*dT*dG*dT*dT*dG*dT*dT*dG*dT*d[5mC]*kT*kG*kA; antisense) [compound 715423]” the IC50 (Yap1 mRNA [1]; [14]) was over 4 µM, the “% UTC 148 nM” value (Yap1 mRNA [1]; [15]) was 83 % UTC and the “% UTC 444 nM” value (Yap1 mRNA [1]; [16]) was 91 % UTC. For the same substance, the “% UTC 1333 nM” value (Yap1 mRNA [1]; [17]) was 80 % UTC and the “% UTC 4000 nM” value (Yap1 mRNA [1]; [18]) was 57 % UTC.

For “716501 (antisense kG*k[5mC]*kA*d[5mC]*dT*dG*dA*dA*dA*dG*dT*dA*d[5mC]*kT*kT*kA) [compound 716501]”, the “Yap1 mRNA, % UTC” value (Yap1 mRNA [1]; [4]) was 91 % UTC, the “Yap1 mRNA, % UTC” value (Yap1 mRNA [1]; [5]) was 69 % UTC and the “Yap1 mRNA, % UTC” value (Yap1 mRNA [1]; [6]) was 66 % UTC. For the same substance, the “Yap1 mRNA, % UTC” value (Yap1 mRNA [1]; [7]) was 55 % UTC and the IC50 (Yap1 mRNA [1]; [8]) was over 4 µM.

“1074754 (k[5mC]*kT*kT*dT*dT*dA*d[5mC]*dA*dT*dT*dA*dG*dG*kA*kA*k[5mC]) [Compound 1074754]” was tested, and the “YAP1 (% UT)” value (Yap1 mRNA [2]) was 69 % UT and the “YAP1 (% UTC)” value (Yap1 mRNA [3]) was 11 % UTC.

In the case of “715510 (kA*kT*kT*dT*dG*d[5mC]*dT*dG*dT*dG*d[5mC]*dT*dG*kG*kG*kA; antisense) [compound 715510]”, the IC50 (Yap1 mRNA [1]; [14]) is reported as 2.4 µM, the “% UTC 148 nM” value (Yap1 mRNA [1]; [15]) is reported as 88 % UTC and the “% UTC 444 nM” value (Yap1 mRNA [1]; [16]) is reported as 67 % UTC. The “% UTC 1333 nM” value (Yap1 mRNA [1]; [17]) was 59 % UTC and the “% UTC 4000 nM” value (Yap1 mRNA [1]; [18]) was 45 % UTC.

In the case of “715508 (k[5mC]*kT*kG*dT*dG*d[5mC]*dT*dG*dG*dG*dA*dT*dT*kG*kA*kT; antisense) [compound 715508]”, the IC50 (Yap1 mRNA [1]; [14]) is reported as 3.5 µM, the “% UTC 148 nM” value (Yap1 mRNA [1]; [15]) is reported as 78 % UTC and the “% UTC 444 nM” value (Yap1 mRNA [1]; [16]) is reported as 70 % UTC. For the same substance, the “% UTC 1333 nM” value (Yap1 mRNA [1]; [17]) was 67 % UTC and the “% UTC 4000 nM” value (Yap1 mRNA [1]; [18]) was 43 % UTC.

“715500 (kA*kA*kG*d[5mC]*d[5mC]*dT*dT*dA*dG*dA*dG*dT*d[5mC]*kA*kA*kT; antisense) [compound 715500]” was tested, and the IC50 (Yap1 mRNA [1]; [14]) was 3.6 µM, the “% UTC 148 nM” value (Yap1 mRNA [1]; [15]) was 97 % UTC and the “% UTC 444 nM” value (Yap1 mRNA [1]; [16]) was 72 % UTC. For the same substance, the “% UTC 1333 nM” value (Yap1 mRNA [1]; [17]) was 67 % UTC and the “% UTC 4000 nM” value (Yap1 mRNA [1]; [18]) was 48 % UTC.

With “716489 (antisense kA*kG*kT*dT*dA*dA*dT*dT*d[5mC]*dA*dT*dG*d[5mC]*kT*k[5mC]*kG) [compound 716489]” the “Yap1 mRNA, % UTC” value (Yap1 mRNA [1]; [4]) was 84 % UTC, the “Yap1 mRNA, % UTC” value (Yap1 mRNA [1]; [5]) was 83 % UTC and the “Yap1 mRNA, % UTC” value (Yap1 mRNA [1]; [6]) was 69 % UTC. For the same substance, the “Yap1 mRNA, % UTC” value (Yap1 mRNA [1]; [7]) was 61 % UTC and the IC50 (Yap1 mRNA [1]; [8]) was over 4 µM.

With “716548 (antisense kG*kA*kG*dT*dT*dT*d[5mC]*dA*dA*d[5mC]*dA*d[5mC]*dT*kG*kA*kT) [compound 716548]” the “Yap1 mRNA, % UTC” value (Yap1 mRNA [1]; [4]) was 99 % UTC, the “Yap1 mRNA, % UTC” value (Yap1 mRNA [1]; [5]) was 89 % UTC and the “Yap1 mRNA, % UTC” value (Yap1 mRNA [1]; [6]) was 79 % UTC. The “Yap1 mRNA, % UTC” value (Yap1 mRNA [1]; [7]) was 67 % UTC and the IC50 (Yap1 mRNA [1]; [8]) was over 4 µM.

In the case of “715414 (kA*kA*k[5mC]*dA*dT*dG*d[5mC]*dT*dG*dT*dG*dG*dA*kG*kT*k[5mC]; antisense) [compound 715414]”, the IC50 (Yap1 mRNA [1]; [9]) is reported as over 4 µM, the “% UTC 148 nM” value (Yap1 mRNA [1]; [10]) is reported as 91 % UTC and the “% UTC 444 nM” value (Yap1 mRNA [1]; [11]) is reported as 91 % UTC. For the same substance, the “% UTC 1333 nM” value (Yap1 mRNA [1]; [12]) was 102 % UTC and the “% UTC 4000 nM” value (Yap1 mRNA [1]; [13]) was 67 % UTC.
